Experimental data: PMC6525201, “Targeting lonidamine to mitochondria mitigates lung tumorigenesis and brain metastasis” (Nature Communications, 2019)

Legend:
mitochondrial complex II = biological target: T1, mitochondrial complex II (Homo sapiens, UniProt O14521+P21912+Q99643); assay: oxygen consumption rate, Seahorse XF96, permeabilized cells; format: cell-based
T1 construct: gene SDHB; native complex in permeabilized H2030BrM3 cells

mitochondrial complex I = biological target: T2, mitochondrial complex I (Homo sapiens, UniProt O75251+O75306+P03886); assay: as above; format: cell-based
T2 construct: gene MT-ND1; native complex in permeabilized H2030BrM3 cells

T1 sequence (P21912 29-280): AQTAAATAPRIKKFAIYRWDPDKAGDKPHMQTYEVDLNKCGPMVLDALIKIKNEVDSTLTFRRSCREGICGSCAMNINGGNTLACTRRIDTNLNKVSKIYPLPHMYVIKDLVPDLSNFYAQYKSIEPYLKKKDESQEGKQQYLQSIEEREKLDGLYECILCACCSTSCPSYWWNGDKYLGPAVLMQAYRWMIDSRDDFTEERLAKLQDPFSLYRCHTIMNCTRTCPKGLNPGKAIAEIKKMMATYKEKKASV
T1 sequence (Q99643 30-169): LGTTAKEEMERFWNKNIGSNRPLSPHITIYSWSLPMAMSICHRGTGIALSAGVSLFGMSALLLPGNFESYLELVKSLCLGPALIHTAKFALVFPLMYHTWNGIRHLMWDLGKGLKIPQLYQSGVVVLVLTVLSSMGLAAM
T1 sequence (O14521 57-159): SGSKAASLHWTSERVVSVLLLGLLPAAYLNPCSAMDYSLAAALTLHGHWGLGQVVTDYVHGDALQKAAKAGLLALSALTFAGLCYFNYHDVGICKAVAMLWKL
T1 sequence (P31040 43-664 partner): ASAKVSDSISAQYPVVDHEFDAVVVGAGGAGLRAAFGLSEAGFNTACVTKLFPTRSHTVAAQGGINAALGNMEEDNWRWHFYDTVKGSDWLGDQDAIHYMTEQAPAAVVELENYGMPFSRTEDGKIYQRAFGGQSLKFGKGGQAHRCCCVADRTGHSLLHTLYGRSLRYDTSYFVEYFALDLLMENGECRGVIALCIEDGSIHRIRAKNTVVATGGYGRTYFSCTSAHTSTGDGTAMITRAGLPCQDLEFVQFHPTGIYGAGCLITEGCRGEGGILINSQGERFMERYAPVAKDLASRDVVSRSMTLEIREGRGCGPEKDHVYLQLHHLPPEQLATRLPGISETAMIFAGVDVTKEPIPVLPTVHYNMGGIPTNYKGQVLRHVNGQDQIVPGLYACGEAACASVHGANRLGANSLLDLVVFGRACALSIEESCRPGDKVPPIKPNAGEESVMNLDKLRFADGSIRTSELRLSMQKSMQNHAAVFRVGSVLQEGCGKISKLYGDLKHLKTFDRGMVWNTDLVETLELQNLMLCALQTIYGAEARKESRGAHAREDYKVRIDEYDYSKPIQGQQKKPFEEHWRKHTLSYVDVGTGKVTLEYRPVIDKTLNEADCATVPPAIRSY

Row | SMILES | IC50 (mitochondrial complex II) [µM] | IC50 (mitochondrial complex I) [µM]
1 | O=C(NCCCCCCCCCC[P+](c1ccccc1)(c1ccccc1)c1ccccc1)c1nn(Cc2ccc(Cl)cc2Cl)c2ccccc12 [Mito-LND] | 2.4 | 1.2
2 | O=C(O)c1nn(Cc2ccc(Cl)cc2Cl)c2ccccc12 [LND] | 390 | 444
